According to PubChem BioAssay AID179 (DTP/NCI, 2004):
The source made the active and inactive calls.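 The calls were made as follows: active = compounds giving half or more protection of infected cells from virus-caused growth loss, again on retest; inactive = the rest.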 *1 amine or outer side, *2 acyl side, *3 side chain or, on linkers, in order; H or OH if unused. Where a SMILES comes first, the peptide text is derived from it. [ ]: non-standard residue; d: D form. X7 = NC(N)=NCC(O)CC(N[*:1])C(=O)[*:2]; Orn = NCCC[CH](N)C(=O)O

Test system: CEM cells HIV-1 protection, formazan growth assay
Assay: NCI AIDS Antiviral Assay
Details: for IC50: measured here: growth of uninfected CEM cells
Outline: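 Soluble formazan readout of cell growth; CEM cells ± HIV-1; 5 drug concs. ≥50% protection → retest; ≥50% again = moderately active; reproducible 100% = confirmed active.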

Row | Compound | EC50 | IC50 | outcome
1 | C1CCC2(CC1)O[C@@H]1[C@@H](O2)[C@@H](O[C@H]2O[C@@H]3COC4(CCCCC4)O[C@H]3[C@@H]3OC4(CCCCC4)O[C@@H]23)O[C@@H]2COC3(CCCCC3)O[C@@H]12 | > 100 µM | > 100 µM | –
2 | COC(=O)c1cc(C(c2cc(C(=O)OC)c(O)c(Br)c2C)C(Cl)Cl)c(C)c(Br)c1O | > 200 µM | 66.1 µM | –
3 | CCOC(=O)C(=CNC(=S)Nc1ccc(OCC)cc1)C(=O)OCC | > 200 µM | 112 µM | –
4 | Cc1ccc(-c2oc(C=Nc3ccccc3)c([N+](=O)[O-])c2-c2ccc(C)cc2)cc1 | > 200 µM | > 200 µM | –
5 | NC(CCCCNCc1ccccc1O)C(=O)O (stereo not given) | > 178 µM | > 178 µM | –
6 | Cc1c(O)c2ccc(Cl)cc2n(C)c1=O | > 200 µM | > 200 µM | –
7 | N#C/C(=C\c1ccccc1)c1ccccc1[N+](=O)[O-] | > 200 µM | 12.6 µM | –
8 | CC(C)c1cccc(C(C)C)c1NC(=S)N=Nc1cc(C(C)(C)C)c(O)c(C(C)(C)C)c1 | > 5.75 µM | > 5.75 µM | –
9 | O=C1c2ccccc2C(=O)C1(O)c1c[nH]c2ccccc12 | > 912 µM | 64.6 µM | –
10 | CC(C)(C)n1c(=O)n2n(c1=O)C1c3cccc4cccc(c34)C2C2c3cccc4cccc(c34)C1n1c(=O)n(C(C)(C)C)c(=O)n12 | > 200 µM | 50.1 µM | –
11 | N#C/C(=C\c1ccccc1)C(NO)Nc1ccccc1 (stereo not given) | > 135 µM | 64.6 µM | –
12 | O=S(O)CCCCSSSCCCCS(=O)O | > 200 µM | 2.69 µM | –
13 | CC(C)CCCCCCCCCCCCC(=O)NCC(=O)NC1C(C)OC(Nc2ncnc3c2ncn3C)C(O)C1O (stereo not given) | – | – | inactive
14 | CC(C)(C)[Si](C)(C)OCC1OC(n2ccc(=O)[nH]c2=O)C(O[Si](C)(C)C(C)(C)C)/C1=N/O (stereo not given) | > 200 µM | 4.07 µM | –
15 | CC(=O)Oc1ccc[nH]c1=O | > 200 µM | 58.9 µM | –
16 | O=C(NC1CCC(=O)N1C(=O)OCc1ccccc1)OCc1ccccc1 (stereo not given) | > 200 µM | > 200 µM | –
17 | COCn1c(C(=O)c2ccccc2)c(C)c(=O)[nH]c1=O | 70.8 µM | > 200 µM | –
18 | CCOC(=O)/C(=C(\C)N)C1CC(=O)NC1=O (stereo not given) | > 200 µM | 107 µM | –
19 | C[C@@H]1c2c([nH]c(=O)[nH]c2=O)O[C@@H]1c1ccccc1 | > 200 µM | > 200 µM | –
20 | CC1=NC(c2ccccc2)(C2(c3ccccc3)C(c3ccccc3)=C2c2ccccc2)C(=O)O1 (stereo not given) | > 6.17 µM | > 6.17 µM | –
21 | O=C1CC2(C(=O)O1)C1C(=O)OC(=O)C1C1c3ccccc3C=NN12 (stereo not given) | > 692 µM | > 692 µM | –

Row | Compound | EC50 | IC50 | outcome
22 | Cc1ccc(-c2nc3ccccc3c(=O)n2NCC2(O)OCC(O)C(O)C2O)cc1 (stereo not given) | – | – | inactive
23 | CC1=NN(c2ccccc2)C(=O)/C1=C1/C(=O)N(c2ccccc2)N=C1C | > 200 µM | > 200 µM | –
24 | Cc1noc(NS(=O)(=O)c2ccc(NC(=S)/N=C/c3c(O)[nH]c(=O)[nH]c3=O)cc2)c1C | > 200 µM | > 200 µM | –
25 | CC(C)CC(C#CCCOC(=O)c1ccccc1)OC(=O)c1ccccc1 (stereo not given) | > 200 µM | 95.5 µM | –
26 | COc1ccc(-c2c3c([nH]c(=S)c2C#N)CCC3)cc1 | 178 µM | > 200 µM | –
27 | O=C1/C(=C/c2cccc(O)c2)SC(=S)N1/C=C\c1nc2ccccc2[nH]c1=O | > 200 µM | 81.3 µM | –
28 | CCOC(=O)C(NC(=O)CC(C)C)(N1CCN(c2cc3c(cc2F)c(=O)c(C(=O)O)cn3C2CC2)CC1)C(F)(F)F (stereo not given) | > 200 µM | 1.91 µM | –
29 | NS(=O)(=O)c1ccc(NC(NC(=O)C(C(F)(F)F)C(F)(F)F)(C(F)(F)F)C(F)(F)F)cc1 | > 200 µM | > 200 µM | –
30 | COc1ccc(C(C)c2cc3c(cc2OC)OCO3)cc1 (stereo not given) | > 66.1 µM | 0.427 µM | –
31 | O=C(O)CC1OCC=C2CN3CCC45c6ccccc6NC4C1C2CC35 (stereo not given) | > 85.1 µM | > 85.1 µM | inactive
32 | CC(N1CCS(=O)(=O)CC1)P(=O)(O)O (stereo not given) | > 200 µM | > 200 µM | –
33 | CC1=C(C(=O)Nc2cccc(C(F)(F)F)c2)C(c2ccc(O)cc2)C(C(=O)Nc2cccc(C(F)(F)F)c2)=C(C)N1 | > 32.4 µM | > 32.4 µM | –
34 | CC1OC(OC2C(CO)OC(O[C@H]3CC[C@@]4(C)C(=CC[C@H]5[C@@H]6C[C@@H]7O[C@](O)(CC[C@H](CO)COC8OC(CO)C(O)C(O)C8O)[C@@H](C)[C@@H]7[C@@]6(C)CC[C@@H]54)C3)C(OC3OC(C)C(O)C(O)C3O)C2O)C(O)C(O)C1O (stereo not given in full) | > 200 µM | > 200 µM | –
35 | CC(O)C(NC(=O)C(CCCN)NC(=O)C(CC(O)CN=C(N)N)NC(=O)C(N)CCCN=C(N)N)C(=O)NC(CCCN)C(=O)NC(CC(O)CN=C(N)N)C(=O)NC(Cc1ccc(O)cc1)C(=O)O (stereo not given) (H-R[X7][Orn]T[Orn][X7]Y-OH; configuration not given here) | > 245 µM | 174 µM | –
36 | CCC(=O)N1C(=O)C(C)C23c4cccc([N+](=O)[O-])c4C(=O)N2CCCN13 (stereo not given) | > 692 µM | > 692 µM | –
37 | N#CC(=C=[N-])[n+]1ccc(Cl)cc1 | – | – | inactive
38 | CCCCCC(/C=C/[C@@H]1CC(=O)C[C@H]1O[Si](C)(C)C(C)(C)C)OCOCCOC (stereo not given in full) | 5.75 µM | 7.59 µM | –
39 | CCN(CC)c1ccc2cc(C(=O)Nc3ccccc3)c(=N)oc2c1 | > 100 µM | > 100 µM | –
40 | COC1N(C2C=CC(CO)O2)C(=O)NC(=O)C1(C)I (stereo not given) | 0.275 µM | 7.76 µM | –
41 | CC(=O)N=C1N(/C=C2\C(=O)Oc3ccccc3C2=O)C(=O)/C(=C/c2ccco2)N1C | > 200 µM | 69.2 µM | –
42 | CN(C)c1ccc2nc3c(C(=O)O)cc(=O)c(O)c-3oc2c1 | > 100 µM | 13.8 µM | –

Row | Compound | EC50 | IC50 | outcome
43 | O=C1CCC(=O)Nc2ccccc2-c2ccccc2N1 | – | – | inactive
44 | CN(C)CC1CCCCCC(CN(C)C)C1=O (stereo not given) | > 20 µM | 1.07 µM | –
45 | C=C1C(=O)OC2C1CC1OC2C(C)CCC/C(C)=C\CCC1(C)O (stereo not given) | > 525 µM | 17 µM | –
46 | COc1ccc(NC(=O)CCc2cc(-c3ccc(O)c(OC)c3)nc(NC#N)n2)cc1 | > 224 µM | > 224 µM | –
47 | CC(C)(O)CCCC1CCC2C3CCC4CCCCC4(C)C3CCC2(C)C1O (stereo not given) | > 200 µM | 9.33 µM | –
48 | Cc1nn(C)cc1P(=S)(c1ccccc1)c1ccccc1 | > 16.6 µM | > 16.6 µM | –
49 | Cc1ccc2c(c1C)CC1(Cc3c(ccc4c3CCC4)C1=O)C2=O (stereo not given) | > 100 µM | > 100 µM | –
50 | OCC1OC2NC(=S)OC2C(O)C1O (stereo not given) | > 200 µM | > 200 µM | –
51 | O=C(OCc1ccccc1)/C(c1ccccc1)=[N+]1/C(=S)Nc2ccc([N+](=O)[O-])cc21 | > 200 µM | 105 µM | –
52 | CCCCCCCCCCCCCCCCCCCCCCCCCCCCCC=C(c1cc(Cl)c(OC)c(C(=O)OC)c1)c1cc(Cl)c(OC)c(C(=O)OC)c1 | > 2.24 µM | > 2.24 µM | –
53 | CC(C)(C)c1ccc(CN2CCN(C(c3ccccc3)c3ccc(Cl)cc3)CC2)cc1 (stereo not given) | > 200 µM | 115 µM | –
54 | CCCCCC=C(c1cc(Br)c(OC)c(Br)c1)c1cc(Br)c(OC)c(Br)c1 | > 151 µM | > 151 µM | –
55 | CCCCCCCCCCNP(=S)(NCCCCCCCCCC)c1ccccc1 | – | – | inactive
56 | CN1c2ccccc2C(=O)NC12CCNCC2 | > 200 µM | > 200 µM | –
57 | NC(CSS(=O)(=O)O)=NCC1CC2CCC1C2 (stereo not given) | > 200 µM | 91.2 µM | –
58 | COc1ccccc1NC(=O)C(/C=N/C(=S)NCCNc1ccc(OC)c(OC)c1)=C(\C)O | > 200 µM | 51.3 µM | –
59 | O=C1OC(=O)C2C1C(c1ccc(Cl)cc1)N1C3C(=O)OC(=O)C3C(c3ccc(Cl)cc3)N21 (stereo not given) | > 28.8 µM | > 28.8 µM | –
60 | Nc1ccc(/C=C/c2ccc(N=Nc3cc(S(=O)(=O)O)c4cccnc4c3O)cc2S(=O)(=O)O)c(S(=O)(=O)O)c1 | 34.7 µM | > 200 µM | –
61 | CCOC(=O)/C(C#N)=C/c1ccccc1Cl | – | – | inactive
62 | Nc1cc2cccc[n+]2c2cc(Cl)ccc12 | > 20 µM | 1.86 µM | –
63 | OC1CCCC1C(O)(C(F)(F)F)C(F)(F)F (stereo not given) | – | – | inactive

Row | Compound | EC50 | IC50 | outcome
64 | COC(=O)CNCc1cc(N(C)C)cc(CNCC(=O)OC)n1 | > 200 µM | > 200 µM | –
65 | CC(=N)C(C#N)C(=S)S (stereo not given) | > 537 µM | 27.5 µM | –
66 | COC1CC(OC)C2OC(c3ccccc3)OCC2O1 (stereo not given) | – | – | inactive
67 | C/C(=N/O)C1CC=C(S(=O)(=O)c2ccccc2)C1 (stereo not given) | – | – | inactive
68 | O=S(=O)(Nc1nc2ccccc2n1S(=O)(=O)c1ccccc1)c1ccccc1 | 81.3 µM | 97.7 µM | –
69 | NCCS | > 1410 µM | 525 µM | –
70 | Cc1ccc(S[C@@H](C)[C@@](O)(C(N)=O)c2ccccc2)cc1 | > 200 µM | 30.2 µM | –
71 | O=Nc1c(O)[nH]c(=S)[nH]c1=O | > 148 µM | 115 µM | –
72 | O=c1[nH]c(=O)n(COC(CO)CO)cc1-c1ccccc1 | > 200 µM | > 200 µM | –
73 | CCCC(=O)Nc1ccc(C2=NNC(=O)C3CC23)cc1 (stereo not given) | > 200 µM | > 200 µM | –
74 | NC(=O)c1ccc2c(c1)-c1nc-2nc2[n-]c(nc3nc(nc4[n-]c(n1)c1ccc(C(N)=O)cc41)-c1ccc(C(N)=O)cc1-3)c1ccc(C(N)=O)cc21.[Co+2] | > 9.77 µM | 6.61 µM | –
75 | OC(/C=C/c1ccccc1)Cc1nc2ccccc2[nH]1 (stereo not given) | > 38 µM | > 38 µM | –
76 | Cc1nnc(NS(=O)(=O)c2ccc(N=Nc3cc(N=Nc4ccc(S(=O)(=O)Nc5nnc(C)s5)cc4)c4c(NC(=O)C(Cl)Cl)cccc4c3OC(=O)C(Cl)Cl)cc2)s1 (tested in a mixture with another compound) | – | – | inactive
77 | CC1CN1c1c(C(=O)/C=C/c2ccc(Cl)cc2)c(-c2ccccc2)nn(C)c1=O (stereo not given) | > 8.91 µM | > 8.91 µM | –
78 | CCC(=N\NC(N)=S)/C(C)=N/O | > 200 µM | > 200 µM | –
79 | CC(=O)Nc1c(C#N)c2n(c1C(=O)Nc1ccccc1)CCC2 | > 200 µM | > 200 µM | –
80 | CCOC(=O)COS(=O)(=O)C(F)(F)F | > 1050 µM | > 1050 µM | –
81 | O=C(N1CC2(CN(C(=O)C(F)(F)F)CC3(C1)OCCO3)OCCO2)C(F)(F)F | > 200 µM | > 200 µM | –
82 | COC(=O)C1(C(=O)OC)N=C(C)OC1C(C)C (stereo not given) | > 200 µM | > 200 µM | –
